Measured values reported in US7973056B2, “Triazole derivative or salt thereof” (Fujifilm Finechemicals Co., Ltd, priority 2008, dated 2011).
≈ marks a conversion by molar mass, not a printed value. One block for each compound: values may come before it.

Legend:
[1] = tested on: Candida albicans TIMM 1623; assay: Antifungal activity test (in vivo), mouse systemic infection model; conditions: for T/C (%): survival time of administration group / control group x100
Experimental: With respect to compounds I-1, I-3 and I-6 obtained in Examples 1, 3 and 6 respectively, therapeutic effects at the time of subcutaneous administration of compounds I-1, I-3 and I-6 on a mouse systemic infection model by Candida albicans TIMM 1623 were tested.
The test was carried out using 5 animals for each of the drug administration groups and Negative control group (sterile physiological saline administration group).
Each of compounds I-1, I-3 and I-6 was dissolved in and diluted with dimethyl sulfoxide (DMSO; Wako Pure Chemical Industries, Ltd.) and then prepared into a predetermined concentration by diluting with sterile physiological saline.
As the control experiment, Fluconazole (FLCZ, Flanos intravenous drip solution 100 mg; TOYAMA CHEMICAL CO, LTD.) diluted to a predetermined concentration with sterile physiological saline was used.
On the next day of the receipt of animals, body weights of mice were measured and CP (crude protein) was intraperitoneally administered at a dose of 200 mg/kg based on the individual body weight, and then they were reared for 3 days.
Cells of C. albicans TIMM 1623 cultured overnight at 35° C. on SDA (Sabouraud dextrose agar; Eiken Chemical Co., Ltd.) plate medium were suspended in sterile physiological saline and used as the Stock solution, and a portion thereof was diluted with 10% formalin (Wako Pure Chemical Industries, Ltd.). The number of cells in the diluted liquid was counted under a biological microscope using a hemocytometer, and then an inoculum was prepared by diluting the stock solution with sterile physiological saline (about 1.5×10^5 cells/ml). By inoculating 0.2 ml of this cell suspension through caudal vein, infection was induced. In this connection, the number of viable cells in the inoculum was verified by spreading the cell suspension optionally diluted with sterile physiological saline on an SDA plate medium and then culturing at 35° C. Each of the substances to be tested, control substance or sterile physiological saline was subcutaneously administered after 2 hours of the infection and for 3 days starting on the next day of infection once a day, a total of 4 times. After measuring individual body weight on the next day of infection, CP was again administered intraperitoneally at a dose of 100 mg/kg. The number of survived mice was observed and recorded for 14 days starting on the next day of infection.
The results were shown in Table 3 below and FIGS. 1A to 1D. In the table, the administration dose of the compounds of the present invention and the comparative compound represents a mg amount per 1 kg of a mouse weight (mg/kg).
Significant deference was tested, by 5% for both sides of the levels of significance, in accordance with the Kaplan-Meier method Logrank test (comparison of multiple groups), on the survival time distribution of each of the substances to be tested and control substance administration groups and sterile physiological saline administration group. SAS release 8.2 (SAS Institute Japan) was used in the Kaplan-Meier method Logrank test. (T/C(%)=[survival time of administration group (integrated value)/survival time of control group (integrated value)]×100)

[2] = tested on: Trichophyton mentagrophytes ATCC 9533; assay: Antifungal activity test (in vitro), MIC; assay type: cell-based; conditions: ATCC9533
Experimental: (§1) Minimum inhibitory concentration (MIC) of each of the compounds obtained in Examples 1 to 12 was measured for respective fungi at MOS Pharm Service, by the methods described in Antimicrobial Agents and Chemotherapy, vol. 3, pp. 40-48 (1973), Antimicrobial Agents and Chemotherapy, vol. 33, pp. 215-222 (1989) and Antimicrobial Agents and Chemotherapy, vol. 38, pp. 2362-2368 (1994). The measuring conditions are shown in the following. In this case, Voriconazol was used as a comparative compound. Trichophyton mentagrophytes ATCC 9533; Cultured at 28° C. for 3 days using fluid Sabouraud medium, and this was used as a cell suspension. Each of the compounds of the invention was adjusted to a concentration of 1% by weight using dimethyl sulfoxide (DMSO) and a medium similar to the respective medium used in the above-mentioned fungal culture, having a final concentration of from 0.001 to 100 μg/ml, was prepared. Each of the inoculation cell suspensions prepared by the above-mentioned methods was inoculated onto this agar plate. […] In this connection, Voriconazol was used as the comparative compound C-1.

[3] = tested on: Microsporum canis ATCC 36299; assay: Antifungal activity test (in vitro), MIC; assay type: cell-based; conditions: ATCC36299
Experimental: as §1, with “compound. Microsporum canis” for “compound. Trichophyton mentagrophytes”, “ATCC 36299;” for “ATCC 9533;”, “at 30°” for “at 28°”, “for 2” for “for 3”

[4] = tested on: Candida albicans ATCC 10231; assay: Antifungal activity test (in vitro), MIC; assay type: cell-based; conditions: ATCC10231
Experimental: as §1, with “Candida albicans” for “Trichophyton mentagrophytes”, “10231 and ATCC 44858;” for “9533;”, “37°” for “28°”, “20 hours” for “3 days”

[5] = tested on: Aspergillus fumigatus ATCC 1028; assay: Antifungal activity test (in vitro), MIC; assay type: cell-based; conditions: ATCC1028
Experimental: Minimum inhibitory concentration (MIC) of each of the compounds obtained in Examples 1 to 12 was measured for respective fungi at MOS Pharm Service, by the methods described in Antimicrobial Agents and Chemotherapy, vol. 3, pp. 40-48 (1973), Antimicrobial Agents and Chemotherapy, vol. 33, pp. 215-222 (1989) and Antimicrobial Agents and Chemotherapy, vol. 38, pp. 2362-2368 (1994). The measuring conditions are shown in the following. In this case, Voriconazol was used as a comparative compound.
Aspergillus fumigatus ATCC 1028; Cultured at 28° C. for 2 days using potato dextrose broth, and this was used as a cell suspension.
Each of the compounds of the invention was adjusted to a concentration of 1% by weight using dimethyl sulfoxide (DMSO) and a medium similar to the respective medium used in the above-mentioned fungal culture, having a final concentration of from 0.001 to 100 μg/ml, was prepared. Each of the inoculation cell suspensions prepared by the above-mentioned methods was inoculated onto this agar plate. […] In this connection, Voriconazol was used as the comparative compound C-1.

[6] = tested on: Pityrosporum ovale ATCC 38593; assay: Antifungal activity test (in vitro), MIC; assay type: cell-based; conditions: Malassezia furfur, ATCC38593
Experimental: as §1, with “Cryptococcus neoformans” for “Trichophyton mentagrophytes”, “24067, Pityrosporum ovale ATCC 38593;” for “9533;”, “37°” for “28°”, “2 day” for “3 days”

[7] = tested on: Cryptococcus neoformans ATCC 24067; assay: Antifungal activity test (in vitro), MIC; assay type: cell-based; conditions: ATCC24067
Experimental: as §1, with “Cryptococcus neoformans” for “Trichophyton mentagrophytes”, “24067, Pityrosporum ovale ATCC 38593;” for “9533;”, “37°” for “28°”, “2 day” for “3 days”

Structure (SMILES): OC(Cn1cncn1)(Cn1cncn1)c1ccc(F)cc1F [FLCZ, Fluconazole, reference compound]
- survival rate ([1]; 0.1 mg/kg s.c., day 0): 100
- survival rate ([1]; 0.1 mg/kg s.c., day 1): 100
- survival rate ([1]; 0.1 mg/kg s.c., day 2): 100
- survival rate ([1]; 0.1 mg/kg s.c., day 3): 60
- survival rate ([1]; 0.1 mg/kg s.c., day 4): 60
- survival rate ([1]; 0.1 mg/kg s.c., day 5): 60
- survival rate ([1]; 0.1 mg/kg s.c., day 6): 60
- survival rate ([1]; 0.1 mg/kg s.c., day 7): 40
- survival rate ([1]; 0.1 mg/kg s.c., day 8): 40
- survival rate ([1]; 0.1 mg/kg s.c., day 9): 20
- survival rate ([1]; 0.1 mg/kg s.c., day 10): 20
- survival rate ([1]; 0.1 mg/kg s.c., day 11): 20
- survival rate ([1]; 0.1 mg/kg s.c., day 12): 20
- survival rate ([1]; 0.1 mg/kg s.c., day 13): 20
- survival rate ([1]; 0.1 mg/kg s.c., day 14): 20
- T/C (%) ([1]; 0.1 mg/kg s.c.): 119%
- survival rate ([1]; 0.3 mg/kg s.c., day 0): 100
- survival rate ([1]; 0.3 mg/kg s.c., day 1): 100
- survival rate ([1]; 0.3 mg/kg s.c., day 2): 100
- survival rate ([1]; 0.3 mg/kg s.c., day 3): 100
- survival rate ([1]; 0.3 mg/kg s.c., day 4): 100
- survival rate ([1]; 0.3 mg/kg s.c., day 5): 100
- survival rate ([1]; 0.3 mg/kg s.c., day 6): 100
- survival rate ([1]; 0.3 mg/kg s.c., day 7): 80
- survival rate ([1]; 0.3 mg/kg s.c., day 8): 80
- survival rate ([1]; 0.3 mg/kg s.c., day 9): 80
- survival rate ([1]; 0.3 mg/kg s.c., day 10): 80
- survival rate ([1]; 0.3 mg/kg s.c., day 11): 80
- survival rate ([1]; 0.3 mg/kg s.c., day 12): 80
- survival rate ([1]; 0.3 mg/kg s.c., day 13): 80
- survival rate ([1]; 0.3 mg/kg s.c., day 14): 80
- T/C (%) ([1]; 0.3 mg/kg s.c.): 216%
- survival rate ([1]; 1 mg/kg s.c., day 0): 100
- survival rate ([1]; 1 mg/kg s.c., day 1): 100
- survival rate ([1]; 1 mg/kg s.c., day 2): 100
- survival rate ([1]; 1 mg/kg s.c., day 3): 100
- survival rate ([1]; 1 mg/kg s.c., day 4): 100
- survival rate ([1]; 1 mg/kg s.c., day 5): 100
- survival rate ([1]; 1 mg/kg s.c., day 6): 100
- survival rate ([1]; 1 mg/kg s.c., day 7): 100
- survival rate ([1]; 1 mg/kg s.c., day 8): 100
- survival rate ([1]; 1 mg/kg s.c., day 9): 100
- survival rate ([1]; 1 mg/kg s.c., day 10): 100
- survival rate ([1]; 1 mg/kg s.c., day 11): 100
- survival rate ([1]; 1 mg/kg s.c., day 12): 100
- survival rate ([1]; 1 mg/kg s.c., day 13): 80
- survival rate ([1]; 1 mg/kg s.c., day 14): 80
- T/C (%) ([1]; 1 mg/kg s.c.): 235%

- MIC [2]: 1 µg/mL (≈ 2.32 µM)
- MIC [3]: 10 µg/mL (≈ 23.2 µM)
- melting point: 100 to 102 °C
- MIC [4]: 0.1 µg/mL (≈ 0.232 µM)
- MIC [5]: 10 µg/mL (≈ 23.2 µM)
- MIC [6]: 0.01 µg/mL (≈ 0.0232 µM)
- MIC [7]: 0.3 µg/mL (≈ 0.695 µM)
Structure (SMILES): C[C@@H](N1CCC(c2ccc(F)cn2)CC1)[C@](O)(Cn1cncn1)c1ccc(F)cc1F [I-2, (2R,3R)-2-(2,4-difluorophenyl)-3-[4-(5-fluoropyridin-2-yl)piperidin-1-yl]-1-(1,2,4-triazol-1-yl)butan-2-ol]

- MIC [2]: 30 µg/mL (≈ 70.9 µM)
- MIC [3]: 10 µg/mL (≈ 23.6 µM)
- MIC [4]: 0.1 µg/mL (≈ 0.236 µM)
- MIC [5]: 100 µg/mL (≈ 236 µM)
- MIC [6]: 1 µg/mL (≈ 2.36 µM)
- MIC [7]: 0.3 µg/mL (≈ 0.709 µM)
Structure (SMILES): C[C@@H](n1ccc(-c2ccccn2)cc1=O)[C@](O)(Cn1cncn1)c1ccc(F)cc1F [I-8, 1′-[(1R,2R)-2-(2,4-difluorophenyl)-2-hydroxy-1-methyl-3-(1,2,4-triazol-1-yl)propyl]-2,4′-bipyridin-2′-one]

- MIC [2]: 10 µg/mL (≈ 22.8 µM)
- MIC [3]: 10 µg/mL (≈ 22.8 µM)
- MIC [4]: 100 µg/mL (≈ 228 µM)
- MIC [5]: 100 µg/mL (≈ 228 µM)
- MIC [6]: 0.1 µg/mL (≈ 0.228 µM)
- MIC [7]: 0.3 µg/mL (≈ 0.683 µM)
Structure (SMILES): Cc1ccc(C2=CCCN([C@H](C)[C@](O)(Cn3cncn3)c3ccc(F)cc3F)C2)nc1C [I-11, (2R,3R)-2-(2,4-difluorophenyl)-3-(5,6-dimethyl-5′,6′-dihydro-2,3′-bipyridin-1′(2′H)-yl)-1-(1,2,4-triazol-1-yl)butan-2-ol]
